The structures appear in SMILES notation.

The experiment addresses T1, glycine recognition site of the NMDA receptor complex (Rattus norvegicus, UniProt P35439).
T1 construct: The telencephalon (cerebral cortex, hippocampus, and striatum) was dissected and homogenized; from tissue; host or cells: rat telencephalon membranes (cerebral cortex, hippocampus, striatum), Triton X-100 treated
The experiment in a line: [3H]5,7-DCKA binding assay. Particulars: rat cortical membranes; none = no displacement at 100 μM. On the procedure:
General receptor-binding procedures. Male Sprague-Dawley rats were decapitated and their brains removed rapidly. The telencephalon (cerebral cortex, hippocampus, and striatum) was dissected and homogenized in 20 volumes of ice-cold 0.32 M sucrose, 20 mM HEPES-KOH (pH 7.2 at room temperature) containing protease inhibitors ([…], 5 mg/mL antipain, 20 mg/mL soybean trypsin inhibitor, 500 μM benzamidine, […] aprotinin, and 500 μM phenylmethylsulfonyl fluoride) with a motor driven glass-TEFLON® fluorocarbon homogenizer (8-10 strokes at setting 1). The homogenate was centrifuged at 800 g for 10 minutes. The pellet was discarded and the supernatant was centrifuged at 20,000 g for 20 minutes. The resulting pellet was resuspended in 20 volumes of distilled water containing 500 μM benzamidine and centrifuged for 20 minutes at 7500 g. Then the supernatant and buffy coat were centrifuged three times (51,500 g for 20 minutes) in the presence of distilled water containing 500 μM benzamidine. All centrifugation steps were carried out at 4° C. The final pellet was frozen rapidly at −80° C.
On the day of the assay, the pelleted membranes were resuspended in 20 volumes of 50 mM HEPES-KOH buffer, pH 7.4, and incubated for 20 minutes at 37° C. followed by centrifugation (51,500 g for 20 minutes). Membranes were then resuspended in 50 mM HEPES-KOH buffer (pH 7.8) containing 0.08% Triton X-100. After stirring for 30 minutes at 4° C., the membranes were pelleted by centrifugation (100,000 g for 20 minutes). The membranes were then washed twice by resuspension in the buffer appropriate for the binding assay and centrifugation (100,000 g for 20 minutes). The final pellet was suspended in assay buffer. The amount of protein in the final membrane preparation was determined with the bicinchoninic acid method (BCA; Pierce Chemical Co., Rockford, Ill.). The final protein concentration used for our studies was 300 to 600 μg/mL. Receptor-binding protocols described below were adapted from published procedures. For all assays, the samples, all in duplicate or triplicate, were placed into scintillation vials containing 5.5 mL of scintillation liquid (Ultima Gold; Packard Instrument Co., Inc., Meriden, Conn.) and the retained radioactivity was determined by conventional scintillation spectroscopy with a Beckman TA-6000 scintillation counter. Radio-ligands were purchased from DuPont-NEN (Boston, Mass.).
[^3H]5,7-Dichlorokynurenic acid (5,7-DCKA)-binding assay. The glycine recognition site of the NMDA receptor complex was labeled with the competitive antagonist [^3H]5,7-dichlorokynurenic acid (5,7-DCKA). […]
Data Analysis. The data were analyzed with SigmaPlot 5.0 and SigmaStat 2.0 (Jandel Scientific, Corte Madera, Calif.) software. […]

For `O=C(O)c1cc(NC(=O)N(c2ccccc2)c2ccccc2)c2c(Cl)cc(Cl)cc2n1` [DCUKA, N,N-diphenyl-4-ureido-5,7-dichloro-2-carboxyquinoline], the IC50 was 28 µM.

Values taken from patent US20110184018A1, “METHOD FOR TREATING PERIPHERAL NEUROPATHIC PAIN” (LOHOCLA RESEARCH CORPORATION, priority 2005, published 2011).
